For data set [1], the system named is A-549 (lung adenocarcinoma). The experiment in a line: MTT-based viability assay, A-549. Type of data set: cell-based. To be noted: Homo sapiens, A549, 48 h of treatment, read-out: EC50 ± SD, A-549. How it is done: (§1) To evaluate the cytotoxic activity of compounds 4a–j and 5a–5j, we performed an MTT test for three tumor cell lines, i.e.,: MCF-7 (breast adenocarcinoma), A-549 (lung adenocarcinoma), CCRF-CEM (acute lymphoblastic leukemia), and one normal cell line, MRC-5 (normal lung fibroblasts). The EC50 values, describing the half maximal effective concentration of each tested compound, were calculated and are summarized in Table 4. The representative sigmoidal dose–response curves are shown in Figure S2 (see Supporting Information S2).
(§2) CCRF-CEM (ECACC 85112105) human acute lymphoblastic leukaemia and MRC-5 pd30 Human fetal lung fibroblasts (ECACC 05090501) were purchased from European Collection of Authenticated Cell Cultures, whereas A-549 (ATCC CCL 185) human lung carcinoma and MCF-7 (ATCC HTB-22) human breast adenocarcinoma cell line were purchased from American Type Culture Collection. A-549 and MCF-7 cell lines were cultured in high glucose DMEM (Biowest) supplemented with 10% fetal bovine serum (Biowest), 2 mM L-glutamine and antibiotics (100 U/mL penicillin, 100 µg/mL streptomycin). CCRF-CEM were cultured in RPMI 1640 supplemented with 10% fetal bovine serum (EuroClone), 2 mM L-glutamine and antibiotics (100 U/mL penicillin, 100 µg/mL streptomycin). MRC-5 pd30 human fibroblasts (ECACC) were cultured in MEME, Minimum Essential Medium Eagle (Merck) supplemented with 10% fetal bovine serum (Merck), 2 mM l-glutamine, antibiotics (100 U mL^−1 penicillin, 100 μg mL^−1 streptomycin, Merck) and 1% non-essential amino-acids (Merck). Cells were grown in 75 cm^2 cell culture flasks (Sarstedt, Nümbrecht, Germany), in a humidified atmosphere of CO2/air (5/95%) at 37 °C. All the experiments were performed in exponentially growing cultures. Stock solution of tested compounds were prepared in DMSO and stored in −20 °C for maximum one month. For the cytotoxicity studies, stock solutions were diluted 200-fold with the proper culture medium to obtain the final concentrations. For cytotoxicity studies 2-fold serial dilutions of the tested compounds were prepared in the proper medium in the range from 3.125 µM to 200 µM.
(§3) After incubation with the test compounds, MTT test was performed as described previously. Optical densities were measured at 570 nm using BioTek microplate reader. All measurements were carried out in a minimum of three replicates.

Data set [2] relates to MCF-7 (breast adenocarcinoma). Also noted: method as in PMID 28340404. To be noted: determined previously; read-out: EC50 ± SD, MCF-7; cited from earlier work.
The test system of data set [3] is CCRF-CEM (acute lymphoblastic leukemia). Further details: method as in PMID 28340404. To be noted: determined previously; read-out: EC50 ± SD, CCRF-CEM; cited from earlier work.
A short description of data set [4]: Solubility in DMSO (stock preparation). The class given is physicochemical. The source says:
However, among the tested compounds, the highest selectivity index was obtained for 5a (2.04) for MCF-7, respectively.

For data set [5], the system named is MRC-5 (normal lung fibroblasts). As to the kind of experiment: MTT-based viability assay, MRC-5. The class given is cell-based. To be noted: Homo sapiens, MRC5, 48 h of treatment, read-out: EC50 ± SD, MRC-5. As to the method:
as §1, §2, §3
Background: Formazan colour is commonly taken as a measure of viable cells.

The subject of data set [6] is MCF-7 (breast adenocarcinoma). As to the kind of experiment: MTT-based viability assay, MCF-7. Type of data set: cell-based, human. How it is done: as §1, §2, §3
For data set [7], the system named is CCRF-CEM (acute lymphoblastic leukemia). As to the kind of experiment: MTT-based viability assay, CCRF-CEM. Type of data set: cell-based, human. As to the method:
as §1, §2, §3

Data set [8] relates to CCRF-CEM cells. As to the kind of experiment: Detection of apoptosis by flow cytometry (annexin V-FITC/PI). Type of data set: cell-based, human. To be noted: 45 µM, 48 h, annexin V binding. As to the method:
CCRF-CEM cells were seeded in 24-well plates at 2 × 10^5 cells/well and treated with the tested compounds used in 15 µM, 30 µM, and 45 µM concentrations. After exposure to the examined compounds, the cells were collected, centrifugated at 200× g at 4 °C for 5 min, washed twice with cold phosphate–buffered saline (PBS), and subsequently suspended in binding buffer. Subsequently, 100-μL aliquots of the cell suspension were labelled according to the kit manufacturer’s instructions. Briefly, annexin V-fluorescein isothiocyanate, and propidium iodide (BD Biosciences, Pharmingen, San Diego, CA, USA) were added to the cell suspension, and the mixture was vortexed and then incubated for 15 min at RT in the dark. A cold binding buffer (400 μL) was then added and the cells were vortexed again and kept on ice. Flow cytometric measurements were performed within 1 h after labeling. Viable, necrotic, early, and late apoptotic cells were detected by FACSCanto II flow cytometer (BD Biosciences, San Diego, CA, USA) and analysed using BD FACSDiva software.
Figure 2 Effect of compounds 4f, 5g, and 5j on the progression of apoptosis/necrosis in CCRF-CEM. Percentage of viable, early, and late apoptotic, and necrotic cells after 48 h of treatment with the tested compounds (A). Percentage of CCRF-CEM cells in late apoptosis (B). Cells were stained with annexin V-FITC and PI (propidium iodide). Flow cytometry analyses were run on FACSCanto II flow cytometer (BD Biosciences, San Diego, CA, USA) and analysed using BD FACSDiva software. Graphs represent mean values ± s.e.m. *** p < 0.001 relative to control; ns—not significant. Statistical analysis for three to six independent replicates was performed using a one-way ANOVA analysis (GraphPad Software Inc., San Diego, CA, USA).
A general note: In flow cytometry, cells or beads pass a laser one at a time.

Here are results for three compounds from PMC9315981, “N-Phenacyldibromobenzimidazoles—Synthesis Optimization and Evaluation of Their Cytotoxic Activity” (Molecules, 2022).

The structures appear in SMILES notation. Like-named read-outs stand apart in the source and are kept apart here.

Usually EC50 stands for the concentration needed to bring the measured effect to its halfway point.

On to `Brc1c(Br)c(Br)c2[nH]cnc2c1Br` [4,5,6,7-tetrabromo-1H-benzimidazole], for which the EC50 in data set [1] is 36.4 ± 0.7 µM; in data set [2] it was 23.6 ± 0.1 µM; in data set [3], 18.1 ± 0.6 µM.

Take `O=C(Cn1cnc2cc(Br)c(Br)cc21)c1ccc(Br)cc1` [Compound 4d]: the “solubility in DMSO” value in data set [4] is recorded as “sparingly soluble in DMSO”.

With `O=C(Cn1cnc2c(Br)cc(Br)cc21)c1c(F)cc(F)cc1F` [Compound 5j, 2-(4,6-dibromo-1H-benzimidazol-1-yl)-1-(2,4,6-trifluorophenyl)ethanone], the EC50 in data set [5] was determined as 61 ± 5.64 µM; in data set [1] it was 85.4 ± 3.16 µM; in data set [6] (Homo sapiens, MCF7, MTT, 48 h of treatment, read-out: EC50 ± SD, MCF-7), 42.2 ± 3.95 µM; in data set [7] (Homo sapiens, CCRF-CEM, MTT, 48 h of treatment, read-out: EC50 ± SD, CCRF-CEM), 34.4 ± 2.3 µM. For the same compound, the “SI (selectivity index), MCF-7” value in data set [6] (SI = EC50 for normal MRC-5 line/EC50 for MCF-7) is recorded as 1.45. The “SI (selectivity index), CCRF-CEM” value in data set [7] (SI = EC50 for normal MRC-5 line/EC50 for CCRF-CEM) is 1.77. Further, the induction of apoptosis entry in data set [8] is listed as “induced apoptosis effectively”.
